{"source": "paper PMC8511391", "about": "“Optimization of Pichia pastoris Expression System for High-Level Production of Margatoxin” (Frontiers in Pharmacology, 2021)", "key": {"Kv1.3": {"molecular_target": "Kv1.3", "conditions": "cited from earlier work", "method": "Voltage-gated potassium (Kv) channels are present in a variety of cells and tissues where they regulate multiple physiological processes, including cardiac function, neural excitability, muscle contraction, cell proliferation, cell volume control, and hormonal secretion ([Coetzee et al., 1999]; [Giangiacomo et al., 2004]). […] Previous studies report the production of recombinant MgTx (rMgTx) in E. coli and P. ... || Pharmacological activity of both versions of rMgTx was evaluated by studying their effect on the hKv1.2 and hKv1.3 ion channels. The hKv1.2 current was recorded in CHO cells, which heterologously expressed the hKv1.2 ion channel, and hKv1.3 current was recorded in the human peripheral blood lymphocytes. The stimulation of the hKv1.3 channel expression (activation of isolated mononuclear cells by PHA, see the Materials and Methods section) and recording conditions (no Ca^2+ in the pipette to elicit Ca^2+-activated K^+ channels) guaranteed that the current recorded in these cells is K^+ current ... || (+ 2 further places)"}, "hKv1.3": {"molecular_target": "T1, hKv1.3 (Homo sapiens, UniProt P22001)", "T1 construct": "endogenous in cells", "T1 sequence (P22001 whole entry)": "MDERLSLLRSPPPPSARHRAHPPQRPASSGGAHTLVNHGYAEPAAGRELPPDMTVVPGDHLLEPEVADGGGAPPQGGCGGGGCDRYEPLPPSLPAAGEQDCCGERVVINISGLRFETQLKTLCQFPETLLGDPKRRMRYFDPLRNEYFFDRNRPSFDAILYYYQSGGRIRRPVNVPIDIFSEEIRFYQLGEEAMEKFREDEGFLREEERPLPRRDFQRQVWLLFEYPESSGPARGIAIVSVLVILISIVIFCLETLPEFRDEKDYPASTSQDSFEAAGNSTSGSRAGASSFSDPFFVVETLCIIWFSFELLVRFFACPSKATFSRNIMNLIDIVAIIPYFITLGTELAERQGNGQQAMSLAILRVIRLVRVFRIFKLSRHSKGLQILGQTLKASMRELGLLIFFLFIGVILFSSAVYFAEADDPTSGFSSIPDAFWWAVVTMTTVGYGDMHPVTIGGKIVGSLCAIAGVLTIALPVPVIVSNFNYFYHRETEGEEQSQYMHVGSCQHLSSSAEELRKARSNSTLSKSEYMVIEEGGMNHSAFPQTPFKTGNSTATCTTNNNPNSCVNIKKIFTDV", "assay_type": "cell-based", "quoted_text": "The human venous blood from anonymized healthy donors was obtained from a blood bank. The peripheral blood mononuclear cells were isolated through Histopaque1077 (Sigma-Aldrich Hungary, Budapest, Hungary) density gradient centrifugation. Cells obtained were resuspended in RPMI 1640 medium containing 10% fetal calf serum (Sigma-Aldrich), 100 µg/ml penicillin, 100 µg/ml streptomycin, and 2 mM L glutamine, seeded in a 24-well culture plate at a density of 5 x 10^5 cells per ml, and grown in a 5% CO2 incubator at 37°C for 2–5 days. Phytohemagglutinin A (Sigma-Aldrich) was added in 5, 7, and 10 µg/ml concentrations to the medium to boost the potassium ion channel expression.\nElectrophysiological measurements were performed by using the patch-clamp technique in whole-cell or outside-out patch configuration and voltage clamp mode using the Multiclamp 700B amplifier and Axon Digidata1440 digitizer (Molecular Devices, Sunnyvale, CA). Micropipettes were pulled from GC150F-15 borosilicate capillaries (Harvard Apparatus Kent, United Kingdom), resulting in 3–5 MΩ resistance in the bath solution. The extracellular solution contained 145 mM NaCl, 5 mM KCl, 1 mM MgCl2, 2.5 mM CaCl2, 5.5 mM glucose, and 10 mM HEPES, with a pH of 7.35 and an osmolarity between 302 and 308 mOsM/L. When the toxins were dissolved at different molar concentrations in bath solution, it was supplemented with 0.1 mg/ml of BSA. The pipette filling (intracellular) solution consisted of 140 mM KF, 2 mM MgCl2, 1 mM CaCl2, 10 mM HEPES, and 11 mM EGTA, with a pH of 7.22 and an osmolarity of 295 mOsM/L.\nTo record the hKv1.3 and hKv1.2 currents, 15- to 200-ms-long depolarization impulses were applied at +50 mV from a holding potential of −120 mV every 15 s. The pClamp 10.1 software package was used to acquire and analyze the measured data. Current traces were low-pass filtered by the analog four-pole Bessel filters of the amplifiers, and the sampling frequency was set at 20 kHz, at least twice that of the filter cutoff frequency. The effect of the toxin at a given molar concentration was calculated as the remaining current fraction (RCF = I/I0, where I0 is the peak current in the absence of the toxin and I is the peak current at equilibrium block at a given toxin concentration). The data points on dose–response curves represent the mean of 3–4 individual measurements. […]\nPharmacological activity of both versions of rMgTx was evaluated by studying their effect on the hKv1.2 and hKv1.3 ion channels. The hKv1.2 current was recorded in CHO cells, which heterologously expressed the hKv1.2 ion channel, and hKv1.3 current was recorded in the human peripheral blood lymphocytes. […]"}, "Kv1.2": {"system": "Kv1.2", "conditions": "2014, cited from earlier work", "method": "Margatoxin (MgTx) is a 39-amino-acid peptide toxin isolated from the venom of the scorpion Centruroides margaritatus. Its 3D structure consists of an α-helix and three antiparallel β-strands stabilized by three disulfide bonds. […] Previous studies report the production of recombinant MgTx (rMgTx) in E. coli and P. ... || Pharmacological activity of both versions of rMgTx was evaluated by studying their effect on the hKv1.2 and hKv1.3 ion channels. The hKv1.2 current was recorded in CHO cells, which heterologously expressed the hKv1.2 ion channel, and hKv1.3 current was recorded in the human peripheral blood lymphocytes. The stimulation of the hKv1.3 channel expression (activation of isolated mononuclear cells by PHA, see the Materials and Methods section) and recording conditions (no Ca^2+ in the pipette to elicit Ca^2+-activated K^+ channels) guaranteed that the current recorded in these cells is K^+ current ... || The kinetics of current block by UrMgTx was consistent with previously reported data for MgTx. […] The association rate of TrMgTx, which has the N-terminal His-tag, was ∼1.6-fold lower than that of UrMgTx for both hKv1.2 and hKv1.3. The reduced k on rate could be explained by non–diffusion-limited bimolecular toxin–channe ..."}, "Kv1.1": {"system": "Kv1.1", "conditions": "abstract, ref not given; cited from earlier work", "source_text": "Margatoxin (MgTx) is a high-affinity blocker of voltage-gated potassium (Kv) channels. […] This toxin is widely used to study physiological function of Kv ion channels in various cell types, including immune cells. Isolation of native MgTx in large quantities from scorpion venom is not affordable. Chemical synthesis and recombinant production in Escherichia coli need in vitro oxidative refolding for proper disulfide bond formation, resulting in a very low yield of peptide production. The Pichia pastoris expression system offers an e ..."}}, "data": [{"compound": "CC[N+](CC)(CC)CC", "note": "[tetraethylammonium, reference compound]", "values": [{"measurement": "Kd", "setting": "Kv1.3", "result": 10, "unit": "mM"}, {"measurement": "reduction in peak current, positive control", "setting": "hKv1.3", "result": "Around 50%"}]}, {"compound": "MgTx (TIINVKCTSPKQCLPPCKAQFGQSAGAKCMNGKCKCYPH; UniProt P40755 1-39, looked up)", "values": [{"measurement": "kinetics and reversibility of block, hKv1.2", "setting": "Kv1.2; hKv1.2, whole-cell patch-clamp, ref Bartok et al.", "result": "develops relatively slowly and reversibility of the block is limited"}, {"measurement": "inhibition of Kv1.2", "setting": "Kv1.2; ref Garcia-Calvo et al., 1993, Bartok et al.", "result": "high potency in picomolar concentrations"}, {"measurement": "kinetics and reversibility of block, hKv1.3", "setting": "Kv1.3; hKv1.3, whole-cell patch-clamp, ref Bartok et al., 2014", "result": "equilibrium block develops rapidly and is fully recoverable upon washout"}, {"measurement": "inhibition of Kv1.3", "setting": "Kv1.3; ref Garcia-Calvo et al., 1993, Bartok et al., 2014", "result": "high potency in picomolar concentrations"}, {"measurement": "inhibition of Kv1.1", "setting": "Kv1.1", "result": "in picomolar concentrations"}]}]}
